Test results from US12522583B2, “Benzimidazole derivatives and aza-benzimidazole derivatives as Janus kinase 2 inhibitors and uses thereof” (Dana-Farber Cancer Institute, Inc., priority 2018, dated 2026).

Legend:
Assay in all cases: KINOMEscan
Type in all cases: binding
Details in all cases: read-out: percent control
[1] = biological target: ABL1(H396P)-nonphosphorylated (Homo sapiens (Human), UniProt P00519, H396P)
Text: (§1) Example 2. In Vitro Kinase Selectivity Profiling of the Compounds of the Present Disclosure

ABL2 = ABL2 (Homo sapiens (Human), UniProt P42684)
Text: as §1

BIKE = BIKE (Homo sapiens (Human), UniProt Q9NSY1)
Text: as §1

BMPR1A = BMPR1A (Homo sapiens (Human), UniProt P36894)
Text: as §1

BTK = BTK (Homo sapiens (Human), UniProt Q06187)
Text: as §1

CDK9 = CDK9 (Homo sapiens (Human), UniProt P50750)
Text: as §1

CDKL2 = CDKL2 (Homo sapiens (Human), UniProt Q92772)
Text: as §1

CSNK1A1 = CSNK1A1 (Homo sapiens (Human), UniProt P48729)
Text: as §1

CSNK1E = CSNK1E (Homo sapiens (Human), UniProt P49674)
Text: as §1

CSNK2A1 = CSNK2A1 (Homo sapiens (Human), UniProt P68400)
Text: as §1

DAPK1 = DAPK1 (Homo sapiens (Human), UniProt P53355)
Text: as §1

DDR1 = DDR1 (Homo sapiens (Human), UniProt Q08345)
Text: as §1

EIF2AK1 = EIF2AK1 (Homo sapiens (Human), UniProt Q9BQI3)
Text: as §1

EPHB2 = EPHB2 (Homo sapiens (Human), UniProt P29323)
Text: as §1

EPHB3 = EPHB3 (Homo sapiens (Human), UniProt P54753)
Text: as §1

EPHB6 = EPHB6 (Homo sapiens (Human), UniProt O15197)
Text: as §1

ERK3 = ERK3 (Homo sapiens (Human), UniProt Q16659)
Text: as §1

FLT3 = FLT3 (Homo sapiens (Human), UniProt P36888)
Text: as §1

FLT3(D835Y) = FLT3(D835Y) (Homo sapiens (Human), UniProt P36888, D835Y)
Text: as §1

GCN2(Kin.Dom.2, S808G) = GCN2(Kin.Dom.2, S808G) (Homo sapiens, UniProt Q9P2K8, S808G)
Text: as §1

GRK1 = GRK1 (Homo sapiens (Human), UniProt Q15835)
Text: as §1

IRAK1 = IRAK1 (Homo sapiens (Human), UniProt P51617)
Text: as §1

KIT(A829P) = KIT(A829P) (Homo sapiens (Human), UniProt P10721, A829P)
Text: as §1

LYN = LYN (Homo sapiens (Human), UniProt P07948)
Text: as §1

MARK1 = MARK1 (Homo sapiens (Human), UniProt Q9P0L2)
Text: as §1

MLK2 = MLK2 (Homo sapiens (Human), UniProt Q02779)
Text: as §1

MST2 = MST2 (Homo sapiens (Human), UniProt Q13188)
Text: as §1

MUSK = MUSK (Homo sapiens (Human), UniProt O15146)
Text: as §1

MYLK = MYLK (Homo sapiens (Human), UniProt Q15746)
Text: as §1

PAK4 = PAK4 (Homo sapiens (Human), UniProt O96013)
Text: as §1

PIK3CA(H1047L) = PIK3CA(H1047L) (Homo sapiens (Human), UniProt P42336, H1047L)
Text: as §1

PIK3CA(M1043I) = PIK3CA(M1043I) (Homo sapiens (Human), UniProt P42336, M1043I)
Text: as §1

PIM3 = PIM3 (Homo sapiens (Human), UniProt Q86V86)
Text: as §1

[2] = biological target: RSK2(Kin.Dom.2-C-terminal) (Homo sapiens (Human), UniProt P51812)
Text: as §1

[3] = biological target: RSK3(Kin.Dom.1-N-terminal) (Homo sapiens (Human), UniProt Q15349)
Text: as §1

[4] = biological target: RSK3(Kin.Dom.2- C-terminal) (Homo sapiens (Human), UniProt Q15349)
Text: as §1

SRPK1 = SRPK1 (Homo sapiens (Human), UniProt Q96SB4)
Text: as §1

TRKC = TRKC (Homo sapiens (Human), UniProt Q16288)
Text: as §1

YES = YES (Homo sapiens (Human), UniProt P07947)
Text: as §1

p38-gamma = p38-gamma (Homo sapiens (Human), UniProt P53778)
Text: as §1

TRKC, sequence (Q16288 32-839): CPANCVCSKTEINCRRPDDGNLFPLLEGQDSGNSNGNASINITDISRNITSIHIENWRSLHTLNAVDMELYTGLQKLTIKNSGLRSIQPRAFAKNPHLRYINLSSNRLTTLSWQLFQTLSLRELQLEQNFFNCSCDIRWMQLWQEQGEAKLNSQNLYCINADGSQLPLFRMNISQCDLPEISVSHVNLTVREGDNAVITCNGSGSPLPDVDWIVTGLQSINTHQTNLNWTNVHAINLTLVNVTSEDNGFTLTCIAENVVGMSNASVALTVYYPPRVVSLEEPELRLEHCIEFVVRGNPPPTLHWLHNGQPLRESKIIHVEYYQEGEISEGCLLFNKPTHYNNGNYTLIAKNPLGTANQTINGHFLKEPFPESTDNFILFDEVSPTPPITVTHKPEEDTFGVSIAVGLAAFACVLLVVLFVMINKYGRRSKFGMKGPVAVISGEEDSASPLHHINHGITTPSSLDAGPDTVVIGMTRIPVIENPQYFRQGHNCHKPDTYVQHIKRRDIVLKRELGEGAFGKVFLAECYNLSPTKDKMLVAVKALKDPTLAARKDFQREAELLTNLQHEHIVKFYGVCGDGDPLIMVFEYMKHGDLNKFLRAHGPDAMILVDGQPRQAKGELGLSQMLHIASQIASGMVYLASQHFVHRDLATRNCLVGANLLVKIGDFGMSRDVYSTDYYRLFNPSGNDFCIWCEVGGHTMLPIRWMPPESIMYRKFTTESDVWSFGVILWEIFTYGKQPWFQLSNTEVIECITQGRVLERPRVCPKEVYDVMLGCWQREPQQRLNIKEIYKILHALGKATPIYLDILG
CSNK2A1, sequence (P68400 whole entry): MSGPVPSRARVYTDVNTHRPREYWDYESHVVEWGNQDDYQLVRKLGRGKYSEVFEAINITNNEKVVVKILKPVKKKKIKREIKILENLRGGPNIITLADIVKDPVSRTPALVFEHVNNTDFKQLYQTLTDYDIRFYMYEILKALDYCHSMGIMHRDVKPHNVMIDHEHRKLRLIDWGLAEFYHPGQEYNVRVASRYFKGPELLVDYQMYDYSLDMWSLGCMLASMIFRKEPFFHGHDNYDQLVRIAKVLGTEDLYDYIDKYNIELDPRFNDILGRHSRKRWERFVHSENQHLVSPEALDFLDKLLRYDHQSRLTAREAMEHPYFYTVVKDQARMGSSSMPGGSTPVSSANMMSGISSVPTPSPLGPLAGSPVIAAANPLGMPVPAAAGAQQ
BTK, sequence (Q06187 whole entry): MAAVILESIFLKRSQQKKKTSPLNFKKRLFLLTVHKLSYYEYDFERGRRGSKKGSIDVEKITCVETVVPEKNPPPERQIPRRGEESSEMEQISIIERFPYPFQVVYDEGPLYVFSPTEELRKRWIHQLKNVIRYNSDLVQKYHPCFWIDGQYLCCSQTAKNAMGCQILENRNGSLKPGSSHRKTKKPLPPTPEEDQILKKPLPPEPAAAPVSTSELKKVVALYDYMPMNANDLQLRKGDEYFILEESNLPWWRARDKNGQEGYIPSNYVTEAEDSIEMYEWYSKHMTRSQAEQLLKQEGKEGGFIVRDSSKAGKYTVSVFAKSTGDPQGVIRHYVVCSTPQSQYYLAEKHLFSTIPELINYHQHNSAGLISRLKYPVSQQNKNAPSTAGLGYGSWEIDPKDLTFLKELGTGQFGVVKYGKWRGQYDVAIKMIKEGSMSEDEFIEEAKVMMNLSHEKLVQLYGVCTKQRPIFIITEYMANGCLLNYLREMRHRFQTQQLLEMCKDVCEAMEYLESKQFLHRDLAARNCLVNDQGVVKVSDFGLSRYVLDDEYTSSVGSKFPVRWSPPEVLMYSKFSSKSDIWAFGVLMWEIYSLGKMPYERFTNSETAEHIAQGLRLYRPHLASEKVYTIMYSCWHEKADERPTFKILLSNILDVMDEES
RSK3(Kin.Dom.2- C-terminal), sequence (Q15349 415-672 limits assumed): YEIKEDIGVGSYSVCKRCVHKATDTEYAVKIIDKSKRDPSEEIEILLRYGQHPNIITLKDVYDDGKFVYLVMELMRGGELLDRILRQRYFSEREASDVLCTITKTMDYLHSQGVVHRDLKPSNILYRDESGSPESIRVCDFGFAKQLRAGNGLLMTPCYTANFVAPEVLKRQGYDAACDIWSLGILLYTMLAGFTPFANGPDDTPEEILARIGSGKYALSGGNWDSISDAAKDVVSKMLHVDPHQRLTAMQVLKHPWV
p38-gamma, sequence (P53778 whole entry): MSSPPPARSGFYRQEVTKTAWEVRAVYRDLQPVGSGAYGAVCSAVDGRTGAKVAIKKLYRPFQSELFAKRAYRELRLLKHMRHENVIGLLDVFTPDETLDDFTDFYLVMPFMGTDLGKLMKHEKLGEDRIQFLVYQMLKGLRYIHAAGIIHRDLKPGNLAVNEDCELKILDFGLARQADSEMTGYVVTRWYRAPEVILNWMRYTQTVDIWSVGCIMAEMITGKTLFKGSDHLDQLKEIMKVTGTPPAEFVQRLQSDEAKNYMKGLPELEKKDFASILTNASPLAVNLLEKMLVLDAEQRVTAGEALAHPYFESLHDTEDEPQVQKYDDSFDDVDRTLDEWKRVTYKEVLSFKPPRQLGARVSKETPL
PAK4, sequence (O96013 whole entry): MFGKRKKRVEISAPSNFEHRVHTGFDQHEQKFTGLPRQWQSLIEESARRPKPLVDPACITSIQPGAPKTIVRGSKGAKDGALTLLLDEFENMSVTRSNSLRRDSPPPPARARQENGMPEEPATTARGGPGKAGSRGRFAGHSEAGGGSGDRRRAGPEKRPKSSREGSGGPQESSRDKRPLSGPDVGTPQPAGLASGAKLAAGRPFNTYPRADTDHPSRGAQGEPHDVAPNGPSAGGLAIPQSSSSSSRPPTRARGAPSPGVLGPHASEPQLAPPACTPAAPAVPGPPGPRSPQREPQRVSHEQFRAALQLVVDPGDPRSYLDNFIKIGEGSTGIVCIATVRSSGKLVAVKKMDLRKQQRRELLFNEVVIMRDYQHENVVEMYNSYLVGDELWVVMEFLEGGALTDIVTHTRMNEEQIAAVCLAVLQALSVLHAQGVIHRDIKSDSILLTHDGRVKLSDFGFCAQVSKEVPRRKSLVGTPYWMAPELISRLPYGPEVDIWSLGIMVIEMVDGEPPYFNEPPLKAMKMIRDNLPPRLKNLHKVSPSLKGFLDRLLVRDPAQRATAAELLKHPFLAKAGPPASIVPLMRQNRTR
CDK9, sequence (P50750 whole entry): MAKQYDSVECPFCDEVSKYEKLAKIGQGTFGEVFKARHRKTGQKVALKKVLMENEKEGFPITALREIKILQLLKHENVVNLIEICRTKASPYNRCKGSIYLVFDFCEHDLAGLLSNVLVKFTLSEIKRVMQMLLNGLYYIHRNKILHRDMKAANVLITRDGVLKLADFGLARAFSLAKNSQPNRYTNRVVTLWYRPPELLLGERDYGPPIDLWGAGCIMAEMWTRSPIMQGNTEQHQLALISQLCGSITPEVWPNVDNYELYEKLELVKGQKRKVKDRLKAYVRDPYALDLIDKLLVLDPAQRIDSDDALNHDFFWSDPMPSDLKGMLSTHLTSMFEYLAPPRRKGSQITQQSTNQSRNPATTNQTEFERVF
MST2, sequence (Q13188 whole entry): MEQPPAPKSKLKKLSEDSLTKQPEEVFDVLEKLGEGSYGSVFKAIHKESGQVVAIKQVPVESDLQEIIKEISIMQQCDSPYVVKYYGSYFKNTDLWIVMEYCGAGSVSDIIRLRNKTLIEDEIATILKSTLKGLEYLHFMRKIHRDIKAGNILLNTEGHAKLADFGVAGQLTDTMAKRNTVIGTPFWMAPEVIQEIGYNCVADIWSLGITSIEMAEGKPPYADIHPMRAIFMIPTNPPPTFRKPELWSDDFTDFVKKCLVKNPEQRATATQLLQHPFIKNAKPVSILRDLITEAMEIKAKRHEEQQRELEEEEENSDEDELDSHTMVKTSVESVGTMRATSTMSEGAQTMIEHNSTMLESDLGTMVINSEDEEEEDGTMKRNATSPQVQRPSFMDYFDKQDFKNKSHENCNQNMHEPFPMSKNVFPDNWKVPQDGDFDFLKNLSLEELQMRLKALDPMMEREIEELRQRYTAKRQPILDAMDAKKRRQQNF
SRPK1, sequence (Q96SB4 whole entry): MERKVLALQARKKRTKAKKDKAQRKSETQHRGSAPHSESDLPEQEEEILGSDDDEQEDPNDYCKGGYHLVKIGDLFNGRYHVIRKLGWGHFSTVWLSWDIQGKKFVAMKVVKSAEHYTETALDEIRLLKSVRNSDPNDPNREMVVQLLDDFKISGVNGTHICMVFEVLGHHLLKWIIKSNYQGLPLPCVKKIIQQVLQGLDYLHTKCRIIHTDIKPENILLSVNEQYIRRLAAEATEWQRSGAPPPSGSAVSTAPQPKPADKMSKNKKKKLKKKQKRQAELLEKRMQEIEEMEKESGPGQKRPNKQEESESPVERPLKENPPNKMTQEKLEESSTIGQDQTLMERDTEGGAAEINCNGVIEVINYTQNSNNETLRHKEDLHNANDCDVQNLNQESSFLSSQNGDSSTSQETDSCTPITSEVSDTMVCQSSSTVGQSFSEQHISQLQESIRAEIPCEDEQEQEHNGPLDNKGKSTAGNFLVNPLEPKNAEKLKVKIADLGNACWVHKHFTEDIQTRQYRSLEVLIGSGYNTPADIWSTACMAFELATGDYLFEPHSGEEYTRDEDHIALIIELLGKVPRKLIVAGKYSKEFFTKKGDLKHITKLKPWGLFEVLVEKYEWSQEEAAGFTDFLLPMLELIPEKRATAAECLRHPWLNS

| Compound | remaining binding at 1 µM [1] [%] | remaining binding at 1 µM (ABL2) [%] | remaining binding at 1 µM (BIKE) [%] | remaining binding at 1 µM (BMPR1A) [%] | remaining binding at 1 µM (BTK) [%] | remaining binding at 1 µM (CDK9) [%] | remaining binding at 1 µM (CDKL2) [%] | remaining binding at 1 µM (CSNK1A1) [%] | remaining binding at 1 µM (CSNK1E) [%] | remaining binding at 1 µM (CSNK2A1) [%] | remaining binding at 1 µM (DAPK1) [%] | remaining binding at 1 µM (DDR1) [%] | remaining binding at 1 µM (EIF2AK1) [%] | remaining binding at 1 µM (EPHB2) [%] | remaining binding at 1 µM (EPHB3) [%] | remaining binding at 1 µM (EPHB6) [%] | remaining binding at 1 µM (ERK3) [%] | remaining binding at 1 µM (FLT3) [%] | remaining binding at 1 µM (FLT3(D835Y)) [%] | remaining binding at 1 µM (GCN2(Kin.Dom.2, S808G)) [%] | other results |
| --- | --- | --- | --- | --- | --- | --- | --- | --- | --- | --- | --- | --- | --- | --- | --- | --- | --- | --- | --- | --- | --- |
| CCN1CCN(Cc2ccc(Nc3nc4ccc(Oc5ccnc(NC(C)=O)c5)cc4n3C)cc2C(F)(F)F)CC1 [Compound I-2] | 0.05 | 32 | 88 | 100 | 78 | 100 | 1.9 | 72 | 90 | 66 | 87 | 0.05 | 75 | 81 | 96 | 72 | 94 | 15 | 70 | 28 | remaining binding at 1 µM (GRK1): 82%; remaining binding at 1 µM (IRAK1): 79%; remaining binding at 1 µM (KIT(A829P)): 0%; remaining binding at 1 µM (LYN): 44%; remaining binding at 1 µM (MARK1): 98%; remaining binding at 1 µM (MLK2): 100%; remaining binding at 1 µM (MST2): 81%; remaining binding at 1 µM (MUSK): 100%; remaining binding at 1 µM (MYLK): 59%; remaining binding at 1 µM (PAK4): 94%; remaining binding at 1 µM (PIK3CA(H1047L)): 73%; remaining binding at 1 µM (PIK3CA(M1043I)): 78%; remaining binding at 1 µM (PIM3): 93%; remaining binding at 1 µM [2]: 98%; remaining binding at 1 µM [3]: 70%; remaining binding at 1 µM [4]: 82%; remaining binding at 1 µM (SRPK1): 50%; remaining binding at 1 µM (TRKC): 44%; remaining binding at 1 µM (YES): 82%; remaining binding at 1 µM (p38-gamma): 58% |
| CCN1CCN(Cc2ccc(Nc3nc4ccc(Oc5ccnc(NC(C)=O)c5)c(C)c4n3C)cc2C(F)(F)F)CC1 [Compound I-6, N-(4-(2-(4-((4-ethylpiperazin-1-yl)methyl)-3-(trifluoromethyl)phenylamino)-1,7-dimethyl-1H-benzo[d]imidazol-6-yloxy)pyridin-2-yl)acetamide] | 1.1 | 5.3 | 96 | 98 | 88 | 96 | 0.5 | 100 | 66 | 91 | 99 | 0 | 29 | 100 | 100 | 95 | 94 | 1 | 56 | 44 | remaining binding at 1 µM (GRK1): 85%; remaining binding at 1 µM (IRAK1): 38%; remaining binding at 1 µM (KIT(A829P)): 0%; remaining binding at 1 µM (LYN): 12%; remaining binding at 1 µM (MARK1): 92%; remaining binding at 1 µM (MLK2): 95%; remaining binding at 1 µM (MST2): 58%; remaining binding at 1 µM (MUSK): 72%; remaining binding at 1 µM (MYLK): 91%; remaining binding at 1 µM (PAK4): 97%; remaining binding at 1 µM (PIK3CA(H1047L)): 85%; remaining binding at 1 µM (PIK3CA(M1043I)): 100%; remaining binding at 1 µM (PIM3): 86%; remaining binding at 1 µM [2]: 99%; remaining binding at 1 µM [3]: 100%; remaining binding at 1 µM [4]: 95%; remaining binding at 1 µM (SRPK1): 83%; remaining binding at 1 µM (TRKC): 3.4%; remaining binding at 1 µM (YES): 84%; remaining binding at 1 µM (p38-gamma): 62% |
